Measurements as given in patent publication US20100255580A1, “Differentiation of Human Embryonic Stem Cells” (LIFESCCAN, INC., priority 2007, published 2010).

What was measured:
[1] = tested on: human embryonic stem cell line H9; test: Real-time PCR of marker gene expression, H9 on MEF (Examples 2-7); format: cell-based
Method: Cells were harvested at the time points indicated in FIG. 3 and assayed by PCR for the expression of genes shown (FIGS. 3, 4 and 5).
After this time interval, the cells were then treated for six days with combinations of retinoic acid and FGF as outlined in Example 2, then the culture medium was removed and replaced with medium comprising DMEM/F12 with 2% FBS, containing the γ-secretase inhibitors L-685,458 at 10 μM for three days.
Cells were continuously cultured for another 3 to 5 days in basal medium with retinoic acid at 1 μM, alone or with bFGF. RNA samples were harvested from cells at various time points along this process to help evaluate the directed differentiation of the cells. Furthermore, culture medium and factors were regularly removed and replenished throughout the differentiation protocol.
RNA extraction, purification, and cDNA synthesis. RNA samples were purified by binding to a silica-gel membrane (Rneasy Mini Kit, Qiagen, CA) in the presence of an ethanol-containing, high-salt buffer followed by washing to remove contaminants. The RNA was further purified using a TURBO DNA-free kit (Ambion, INC), and high-quality RNA was then eluted in water. Yield and purity were assessed by A260 and A280 readings on a spectrophotometer. cDNA copies were made from purified RNA using an ABI (ABI, CA) high capacity cDNA archive kit.
(§1) Real-time PCR amplification and quantitative analysis.
(§2) Final data were expressed relative to a calibrator sample.

H9P44 cells = test: RT-PCR of definitive endoderm markers, growth factor combinations in low serum on MEFs (Example 22); format: cell-based, human; details: H9P44 on MEF; Day 3; normalized to Group 1 (control)
Method: as §1, §2
H9P44 cells were plated onto 6 well plates previously coated with mitomycin treated mouse embryonic fibroblasts (MEF). Cells were grown until 70 to 80% confluency in ES cell medium consisting of DMEM/F12 (Invitrogen/GIBCO) supplemented with 20% knockout serum replacement, 100 nM MEM nonessential amino acids, 0.5 mM beta-mercaptoethanol, 2 mM L-glutamine (all from Invitrogen/GIBCO) and 8 ng/ml human basic fibroblast growth factor (bFGF) (R&D Systems).
Growth factors were added to increasing concentration of FBS in a stepwise manner as indicated in the following regimen: • Day 0: 0% FBS in DMEM/F12 • Day 1: 0.5% FBS in DMEM/F12 • Day 2: 2% FBS in DMEM/F12. • Day 3: Cells were harvested for FACS analysis and RT-PCR.
All growth factors were purchased from R&D Systems, MN. A detailed description and concentration of growth factors for each treatment group is shown below.
For RT-PCR analysis, cells were analyzed for expression of selected panel of definitive endoderm markers.

[2] = tested on: human embryonic stem cells (H9, H7) on MATRIGEL; test: Real-time PCR of definitive endoderm markers, DE protocol on […] or fibronectin (feeder-free); format: cell-based; details: for definitive endoderm markers (real-time PCR): H7 and H9, low serum+AA+/−Wnt ligands, 5 days
Method: as §1, §2
Differentiation of embryonic stem cells to definitive endoderm was carried out as previously described in Nature Biotechnology 23, 1534-1541 (December 2005). […] In all subsequent examples unless otherwise noted, this treatment regimen will be referred to as the definite endoderm (DE) protocol. In parallel, H9, H7, or H1 cells cultured on MEF feeders were also exposed to the same DE protocol outlined above.
At day 5, the cultures were analyzed by FACS for CXCR4, E-cadherin, CD9, CD99, and N-cadherin (CD56) expression and by real time PCR for SOX-17, SOX-7, Alpha-fetal protein (AFP), CXCR4, Brychyury (Bry), gooscecoid (GSC), HNF-3 beta, and GATA4. AFP and SOX-7 are regarded as visceral endoderm markers while GATA4, HNF-3beta and SOX-17 represent definite endoderm markers and GSC, Bry, and CXCR4 represent markers of primitive streak.
In some of the cultures 20 ng/ml Wnt-3a (Catalog #1324-WN-002, R&D Systems, MN), 20 ng/ml Wnt-5a (Catalog #654-WN-010, R&D Systems, MN), 25 ng/ml Wnt-7a (Catalog #3008-WN-025, R&D Systems, MN), or 25 ng/ml Wnt-5b (Catalog #3006-WN-025, R&D Systems, MN) was added throughout the five day treatment. FIG. 24 depicts phase contrast images of H9P46 definitive endoderm culture in the presence of high concentration of (a) AA or (b) AA+20 ng/ml Wnt-3a. FIG. 25 depicts the expression of CXCR4 by FACS at day 5 for H7P44, and H9P46 lines cultured on […] (1:30 dilution) and exposed to the DE protocol+Wnt-3a (FIG. 25, panels b and d) and −Wnt-3a (FIG. 25, panels a and c).
Control cultures were not treated with Wnt-3a. FIG. 27, panel a depicts the expression of CXCR4 by FACS at day 5 in the absence of Wnt-3a, b) 10 ng/ml Wnt-3a, c) 20 ng/ml Wnt-3a and d) 50 ng/ml Wnt-3a. In the absence of Wnt-3a the expression of CXCR4 was very low. […] Real-time PCR results (FIG. 28, panel a) also confirm this finding.
In a separate study, H9 p52 cells were plated on 1:30 low growth factor […]™. For the first 2 days of the DE protocol a range of Wnt3A doses was used: 10 ng/ml, 5 ng/ml and 1 ng/ml. […] The number of cells at the end of the experiment is noted in FIG. 28, panel c.
In order to confirm that the effect of Wnt-3a was through the Wnt pathway, a GSK-3 inhibitor was used to activate the downstream targets of Wnt, such as beta catenin. […] FIG. 29, panel a depicts the expression of CXCR4 by FACS at day 5 in the absence of Wnt-3a or GSK-3B inhibitor, b) +20 ng/ml Wnt-3a, c) +1000 nM GSK-3B inhibitor IX, d) +500 nM GSK-3B inhibitor IX, e) +100 nM GSK-3B inhibitor IX, f) +10 nM GSK-3B inhibitor IX, g) +100 nM GSK-3B inhibitor IX for days 1-2, and h) +10 nM GSK-3B inhibitor IX for days 1-2.
FIG. 31 panels a-d is for H9P49 cells and panels e-f is for H1P46 cells.
Results are expressed as fold increase over untreated cells. […] Results are expressed as fold increase over untreated cells.
H9P55 cells were grown and differentiated on human fibronectin or regular growth factor […]™ (BD Biosciences). lml of DMEM/F12 (Invitrogen/GIBCO) containing 1 ug/ml of human fibronectin (R&D systems, MN) was added to each well of 6 well tissue culture treated dish. Alternatively, regular growth factor […]™ was diluted 1:10 in DMEM/F12 and 1 ml of diluted […]™ was added to each well of 6 well tissue culture treated dish. Cells were passed with collagenase. […] Real-time PCR results (FIG. 39) confirm that formation of definitive endoderm was equivalent on fibronectin and […]™ coated plates.
To determine if the addition of Wnt-3a was causing the increase in differentiation, an inhibitor of Wnt-3 signaling was added to the cultures. […] H9 cells were cultured on plates coated with Growth Factor Reduced […] at a 1:30 dilution. The plates were coated with […] for 1 hr at room temperature. […]

CC(C)C[C@H](NC(=O)[C@H](Cc1ccccc1)C[C@@H](O)[C@H](Cc1ccccc1)NC(=O)OC(C)(C)C)C(=O)N[C@@H](Cc1ccccc1)C(N)=O [L-685,458, reference compound]
NeuroD1 expression ([1]; L-685,458 10 μM for three days): increased further
expression of Ngn3 versus activin A alone or retinoic acid with FGFs ([1]; L-685,458 10 μM for three days): approximately 50 fold
increase of insulin expression ([1]; L-685,458 10 μM for three days): 70 fold
expression of Hes-1 ([1]; L-685,458 10 μM, maximal inhibition on day three): decrease

Group 9: IL-4 (10 ng/ml)
CXCR4 relative expression (H9P44 cells): 1.4
Goosecoid relative expression (H9P44 cells): 0.9
HNF-3B relative expression (H9P44 cells): 0.89
Oct-4 relative expression (H9P44 cells): 0.85
SOX-2 relative expression (H9P44 cells): 1.2
Sox17 relative expression (H9P44 cells): 1

fibronectin
formation of definitive endoderm (real-time PCR) ([2]; H9P55, fibronectin vs MATRIGEL coated plates): equivalent

B1: Wnt-5a: Wnt ligand (Catalog #654-WN-010, R&D Systems, MN) (protein, UniProt P41221 62-380, looked up)
Protein Wnt-5a: IIGAQPLCSQLAGLSQGQKKLCHLYQDHMQYIGEGAKTGIKECQYQFRHRRWNCSTVDNTSVFGRVMQIGSRETAFTYAVSAAGVVNAMSRACREGELSTCGCSRAARPKDLPRDWLWGGCGDNIDYGYRFAKEFVDARERERIHAKGSYESARILMNLHNNEAGRRTVYNLADVACKCHGVSGSCSLKTCWLQLADFRKVGDALKEKYDSAAAMRLNSRGKLVQVNSRFNSPTTQDLVYIDPSPDYCVRNESTGSLGTQGRLCNKTSEGMDGCELMCCGRGYDQFKTVQTERCHCKFHWCCYVKCKKCTEIVDQFVCK
definitive endoderm markers (real-time PCR) [2]: minimal impact

B2: Wnt-5b: Wnt ligand (Catalog #3006-WN-025, R&D Systems, MN) (protein, UniProt Q9H1J7 18-359, looked up)
Protein Wnt-5b: QLLTDANSWWSLALNPVQRPEMFIIGAQPVCSQLPGLSPGQRKLCQLYQEHMAYIGEGAKTGIKECQHQFRQRRWNCSTADNASVFGRVMQIGSRETAFTHAVSAAGVVNAISRACREGELSTCGCSRTARPKDLPRDWLWGGCGDNVEYGYRFAKEFVDAREREKNFAKGSEEQGRVLMNLQNNEAGRRAVYKMADVACKCHGVSGSCSLKTCWLQLAEFRKVGDRLKEKYDSAAAMRVTRKGRLELVNSRFTQPTPEDLVYVDPSPDYCLRNESTGSLGTQGRLCNKTSEGMDGCELMCCGRGYNQFKSVQVERCHCKFHWCCFVRCKKCTEIVDQYICK
definitive endoderm markers (real-time PCR) [2]: minimal impact

B3: Wnt-7a: Wnt ligand (Catalog #3008-WN-025, R&D Systems, MN) (protein, UniProt O00755 32-349, looked up)
Protein Wnt-7a: LGASIICNKIPGLAPRQRAICQSRPDAIIVIGEGSQMGLDECQFQFRNGRWNCSALGERTVFGKELKVGSREAAFTYAIIAAGVAHAITAACTQGNLSDCGCDKEKQGQYHRDEGWKWGGCSADIRYGIGFAKVFVDAREIKQNARTLMNLHNNEAGRKILEENMKLECKCHGVSGSCTTKTCWTTLPQFRELGYVLKDKYNEAVHVEPVRASRNKRPTFLKIKKPLSYRKPMDTDLVYIEKSPNYCEEDPVTGSVGTQGRACNKTAPQASGCDLMCCGRGYNTHQYARVWQCNCKFHWCCYVKCNTCSERTEMYTCK
definitive endoderm markers (real-time PCR) [2]: minimal impact

B4: BMP-4: BMP-4 (Catalog #314-BP-010, R&D Systems, MN) (protein, UniProt P12644 293-408, looked up)
Bone morphogenetic protein 4: SPKHHSQRARKKNKNCRRHSLYVDFSDVGWNDWIVAPPGYQAFYCHGDCPFPLADHLNSTNHAIVQTLVNSVNSSIPKACCVPTELSAISMLYLDEYDKVVLKNYQEMVVEGCGCR
mesoderm marker BRY ([2]; H9P53, BMP-4 25 ng/ml added to the DE protocol): induce formation

B5: DKK1: Wnt Inhibitor; inhibitor of Wnt-3 signaling (protein, UniProt O94907 32-266, looked up)
Dickkopf-related protein 1: TLNSVLNSNAIKNLPPPLGGAAGHPGSAVSAAPGILYPGGNKYQTIDNYQPYPCAEDEECGTDEYCASPTRGGDAGVQICLACRKRRKRCMRHAMCCPGNYCKNGICVSSDQNHFRGEIEETITESFGNDHSTLDGYSRRTTLSSKMYHTKGQEGSVCLRSSDCASGLCCARHFWSKICKPVLKEGQVCTKHRRKGSHGLEIFQRCYCGEGLSCRIQKDHHQASNSSRLHTCQRH
expression level of differentiation markers (CXCR4, GATA4, HNF-3beta, SOX17, goosecoid) ([2]; H9, 100 ng/ml DKK1 with 20 ng/ml Wnt3a and 100 ng/ml activin A, day 5): dramatically decrease
